# Results as given in patent publication US5441941A, “1,2-dihydroellipticines with activity against CNS specific cancer” (The United States of America as represented by the …, priority 1993, dated 1995).
# Tests used:
# DMS 114 = test: cells; conditions: Homo sapiens
# SK-OV-3 = test: NCI in vitro screen, SRB percent growth, Ovarian Cancer
# HL-60 (TB) = test: NCI in vitro screen, SRB percent growth, Leukemia
# M19-MEL = test: NCI in vitro screen, SRB percent growth, Melanoma
# SK-MEL-28 = test: NCI in vitro screen, SRB percent growth, Melanoma
# NCI-H23 = test: NCI in vitro screen, SRB percent growth, Non-Small Cell Lung Cancer
# EKVX = test: cells; conditions: Homo sapiens
# SF-295 = test: NCI in vitro screen, SRB percent growth, CNS Cancer
# U251 = test: as above
# SK-MEL-2 = test: NCI in vitro screen, SRB percent growth, Melanoma
# NCI-H460 = test: NCI in vitro screen, SRB percent growth, Non-Small Cell Lung Cancer
# HT29 = test: NCI in vitro screen, SRB percent growth, Colon Cancer
# OVCAR-3 = test: NCI in vitro screen, SRB percent growth, Ovarian Cancer
# HCT-15 = test: NCI in vitro screen, SRB percent growth, Colon Cancer
# RPMI-8226 = test: cells; conditions: Homo sapiens
# HOP-62 = test: NCI in vitro screen, SRB percent growth, Non-Small Cell Lung Cancer
# TK-10 = test: NCI in vitro screen, SRB percent growth, Renal Cancer
# [1] = Log10 Concentration -4.0, 100 µM
# [2] = Log10 Concentration -7.0, 0.1 µM
# [3] = RPMI-8226, read-out: Percent Growth
smiles,measurement,setting,value
COc1ccc2[nH]c3c(C)c4c(c(C)c3c2c1)CN(C)C=C4 [Formula VII],GI50,DMS 114; DMS-114,0.183 µM
same,IC (TGI),"DMS 114; DMS-114, read-out: TGI",1.7 µM
same,Percent Growth,SK-OV-3; [1],-23%
same,Percent Growth,SK-OV-3; Log10 Concentration -5.0,148%
same,Percent Growth,"SK-OV-3; Log10 Concentration -6.0, 1 µM",167%
same,Percent Growth,SK-OV-3; [2],159%
same,Percent Growth,SK-OV-3; Log10 Concentration -8.0,192%
same,TGI,SK-OV-3; PG=0,73.4 µM
same,GI50,SK-OV-3; PG=+50,73.4 µM
same,CC50,"SK-OV-3; read-out: LC-50, PG=-50",> 100 µM
same,Percent Growth,HL-60 (TB); [1],-43%
same,Percent Growth,HL-60 (TB); Log10 Concentration -5.0,93%
same,Percent Growth,"HL-60 (TB); Log10 Concentration -6.0, 1 µM",121%
same,Percent Growth,HL-60 (TB); [2],123%
same,Percent Growth,HL-60 (TB); Log10 Concentration -8.0,118%
same,TGI,HL-60 (TB); PG=0,48.5 µM
same,GI50,HL-60 (TB); PG=+50,20.8 µM
same,CC50,"HL-60 (TB); read-out: LC-50, PG=-50",> 10000 µM
same,Percent Growth,M19-MEL; [1],-62%
same,Percent Growth,M19-MEL; Log10 Concentration -5.0,-36%
same,Percent Growth,"M19-MEL; Log10 Concentration -6.0, 1 µM",48%
same,Percent Growth,M19-MEL; [2],95%
same,Percent Growth,M19-MEL; Log10 Concentration -8.0,117%
same,TGI,M19-MEL; PG=0,3.7 µM
same,GI50,M19-MEL; PG=+50,0.899 µM
same,CC50,"M19-MEL; read-out: LC-50, PG=-50",34.7 µM
same,Percent Growth,SK-MEL-28; [1],-75%
same,Percent Growth,SK-MEL-28; Log10 Concentration -5.0,4%
same,Percent Growth,"SK-MEL-28; Log10 Concentration -6.0, 1 µM",91%
same,Percent Growth,SK-MEL-28; [2],105%
same,Percent Growth,SK-MEL-28; Log10 Concentration -8.0,101%
same,TGI,SK-MEL-28; PG=0,11.3 µM
same,GI50,SK-MEL-28; PG=+50,2.95 µM
same,CC50,"SK-MEL-28; read-out: LC-50, PG=-50",48.6 µM
same,Percent Growth,NCI-H23; [1],-48%
same,Percent Growth,NCI-H23; Log10 Concentration -5.0,-26%
same,Percent Growth,"NCI-H23; Log10 Concentration -6.0, 1 µM",39%
same,Percent Growth,NCI-H23; [2],97%
same,Percent Growth,NCI-H23; Log10 Concentration -8.0,112%
same,TGI,NCI-H23; PG=0,4.02 µM
same,GI50,NCI-H23; PG=+50,0.648 µM
same,CC50,"NCI-H23; read-out: LC-50, PG=-50",> 100 µM
same,GI50,EKVX,0.774 µM
same,activity at 0.01 µM,EKVX; read-out: Percent Growth,114%
same,activity at 0.1 µM,EKVX; read-out: Percent Growth,108%
same,activity at 1 µM,EKVX; read-out: Percent Growth,43%
same,activity at 10 µM,EKVX; read-out: Percent Growth,3%
same,activity at 100 µM,EKVX; read-out: Percent Growth,-11%
same,IC (TGI),EKVX; read-out: TGI,16.5 µM
same,Percent Growth,SF-295; [1],-51%
same,Percent Growth,SF-295; Log10 Concentration -5.0,-30%
same,Percent Growth,"SF-295; Log10 Concentration -6.0, 1 µM",11%
same,Percent Growth,SF-295; [2],65%
same,Percent Growth,SF-295; Log10 Concentration -8.0,88%
same,TGI,SF-295; PG=0,1.89 µM
same,GI50,SF-295; PG=+50,0.191 µM
same,CC50,"SF-295; read-out: LC-50, PG=-50",89.5 µM
same,Percent Growth,U251; [1],-47%
same,Percent Growth,U251; Log10 Concentration -5.0,-45%
same,Percent Growth,"U251; Log10 Concentration -6.0, 1 µM",3%
same,Percent Growth,U251; [2],87%
same,TGI,U251; PG=0,1.18 µM
same,GI50,U251; PG=+50,0.276 µM
same,CC50,"U251; read-out: LC-50, PG=-50",> 100 µM
same,Percent Growth,SK-MEL-2; [1],-91%
same,Percent Growth,SK-MEL-2; Log10 Concentration -5.0,-23%
same,Percent Growth,"SK-MEL-2; Log10 Concentration -6.0, 1 µM",110%
same,Percent Growth,SK-MEL-2; [2],137%
same,Percent Growth,SK-MEL-2; Log10 Concentration -8.0,125%
same,TGI,SK-MEL-2; PG=0,6.69 µM
same,GI50,SK-MEL-2; PG=+50,2.83 µM
same,CC50,"SK-MEL-2; read-out: LC-50, PG=-50",24.7 µM
same,Percent Growth,NCI-H460; [1],-71%
same,Percent Growth,"NCI-H460; Log10 Concentration -6.0, 1 µM",67%
same,Percent Growth,NCI-H460; [2],85%
same,Percent Growth,NCI-H460; Log10 Concentration -8.0,93%
same,TGI,NCI-H460; PG=0,9.4 µM
same,GI50,NCI-H460; PG=+50,1.78 µM
same,CC50,"NCI-H460; read-out: LC-50, PG=-50",49.5 µM
same,Percent Growth,HT29; [1],-73%
same,Percent Growth,HT29; Log10 Concentration -5.0,24%
same,Percent Growth,"HT29; Log10 Concentration -6.0, 1 µM",88%
same,Percent Growth,HT29; [2],112%
same,Percent Growth,HT29; Log10 Concentration -8.0,97%
same,TGI,HT29; PG=0,17.8 µM
same,GI50,HT29; PG=+50,3.92 µM
same,CC50,"HT29; read-out: LC-50, PG=-50",58 µM
same,Percent Growth,OVCAR-3; [1],-31%
same,Percent Growth,OVCAR-3; Log10 Concentration -5.0,10%
same,Percent Growth,"OVCAR-3; Log10 Concentration -6.0, 1 µM",74%
same,Percent Growth,OVCAR-3; [2],91%
same,Percent Growth,OVCAR-3; Log10 Concentration -8.0,98%
same,TGI,OVCAR-3; PG=0,17.3 µM
same,GI50,OVCAR-3; PG=+50,2.39 µM
same,CC50,"OVCAR-3; read-out: LC-50, PG=-50",> 100 µM
same,Percent Growth,HCT-15; [1],16%
same,Percent Growth,HCT-15; Log10 Concentration -5.0,96%
same,Percent Growth,"HCT-15; Log10 Concentration -6.0, 1 µM",111%
same,Percent Growth,HCT-15; [2],114%
same,Percent Growth,HCT-15; Log10 Concentration -8.0,118%
same,TGI,HCT-15; PG=0,> 100 µM
same,GI50,HCT-15; PG=+50,37.7 µM
same,CC50,"HCT-15; read-out: LC-50, PG=-50",> 100 µM
same,GI50,RPMI-8226; RPMI-8226,6.31 µM
same,CC50,"RPMI-8226; RPMI-8226, read-out: LC-50",> 100 µM
same,activity at 0.01 µM,RPMI-8226; [3],104%
same,activity at 0.1 µM,RPMI-8226; [3],101%
same,activity at 1 µM,RPMI-8226; [3],99%
same,activity at 10 µM,RPMI-8226; [3],38%
same,activity at 100 µM,RPMI-8226; [3],-38%
same,IC (TGI),"RPMI-8226; RPMI-8226, read-out: TGI",31.5 µM
same,Percent Growth,HOP-62; [1],-81%
same,Percent Growth,HOP-62; Log10 Concentration -5.0,-57%
same,Percent Growth,"HOP-62; Log10 Concentration -6.0, 1 µM",14%
same,Percent Growth,HOP-62; [2],106%
same,Percent Growth,HOP-62; Log10 Concentration -8.0,115%
same,TGI,HOP-62; PG=0,1.58 µM
same,GI50,HOP-62; PG=+50,0.406 µM
same,CC50,"HOP-62; read-out: LC-50, PG=-50",7.89 µM
same,Percent Growth,TK-10; [1],-6%
same,Percent Growth,TK-10; Log10 Concentration -5.0,64%
same,Percent Growth,"TK-10; Log10 Concentration -6.0, 1 µM",114%
same,Percent Growth,TK-10; [2],127%
same,Percent Growth,TK-10; Log10 Concentration -8.0,120%
same,TGI,TK-10; PG=0,82.7 µM
same,GI50,TK-10; PG=+50,15.9 µM
same,CC50,"TK-10; read-out: LC-50, PG=-50",> 100 µM
